Assay results from patent publication US20240408008A1, “AN IN-SITU GELLING ENEMA OF RIFAMYCIN FOR TREATING POUCHITIS AND DISTAL ULCERATIVE COLITIS” (COSMO TECHNOLOGIES LTD., priority 2021, published 2024).
In brackets after ≈: the same amount, converted by molar mass.

Key:
[1] = tested on: Faecalibacterium prausnitzii; test: MIC, broth dilution; format: cell-based; conditions: anaerobic
Fusobacterium ulcerans = test: MIC, broth dilution; format: cell-based; conditions: DSM19847; Fusobacterium ulcerans (DSM 19847); anaerobic
C. perfringens = test: microbe, parasite or virus in culture; format: cell-based; conditions: Clostridium perfringens, DSM11783
mTOR pathway = test: Inhibition of mTOR and S6R phosphorylation in primary colonic epithelial cells, flow cytometry; format: cell-based, human
Method: To evaluate Rifamycin activity on the mTOR pathway, primary colonic epithelial cells were serum starved for 24 hr and restimulated with serum for 48 hr to induce phosphorylation of mTOR and its downstream target protein […]. Serum stimulated cells were treated with Rifamycin SV, Rifaximin, the positive control Rapamycin, or the negative vehicle control DMSO. Cells were fixed, stained with antibodies against pmTOR and pS6R then analyzed by flow cytometry.

Bacteroides fragilis = test: MIC, broth dilution; format: cell-based; conditions: anaerobic
Rothia dentocariosa = test: MIC, broth dilution; format: cell-based; conditions: DSM43762; Rothia dentocariosa (DSM 43762); aerobic
Parvimonas micra = test: MIC, broth dilution; format: cell-based; conditions: DSM20468; Parvimonas micra (DSM 20468); anaerobic
Bifidobacterium breve = test: MIC, broth dilution; format: cell-based; conditions: DSM20091; Bifidobacterium breve (DSM 20091); anaerobic
DSS induced colitis = test: Acute colitis induced by Dextran Sulfate Sodium (DSS); format: in vivo; conditions: mice, DSS 2%, enema 67 mg/kg
Method: In situ gel enema formulation batch 7663 (same formulation as batch 7639) in vivo efficacy was tested in a murine model of acute colitis induced by Dextran Sulfate Sodium (DSS). This animal model is perhaps the most widely used mouse model of colitis and employs DSS, a chemical colitogen with anticoagulant properties, to induce disease which closely resembles human UC. DSS induced intestinal inflammation results in damage to the epithelial monolayer lining the large intestine allowing the dissemination of proinflammatory intestinal contents (e.g. bacteria and their products) into underlying tissue.
(§1) For this study, a group of mice was treated by enema with Batch 7663 (indicated as CB0125 in the figures) (dose 45 mg/kg), one group was treated by enema with Placebo Batch 7679 as a comparator for 7663; a group was treated by enema with Rifamycin powder dissolved in water (67 mg/kg). One group of mice was treated orally PO with 5-ASA at the dose of 100 mg/Kg; this group was introduced as positive control. 5-ASA is the golden standard therapy for inflammatory bowel diseases, including UC, distal UC and proctitis. One group was treated by enema with the vehicle (H2O) only, as negative control.
Briefly DSS (2%) was dissolved in water (w/v) and given to mice in place of normal drinking water. DSS water was provided ad libitum for 5 days and was changed daily. This period was followed by a washout period of 5 days with water only. Mice were weighed daily and monitored for clinical status including hunching, mobility, soft stool and/or diarrhoea. At end of the study mice were sacrificed by CO2 inhalation. Immediately after euthanasia, the animals were laparatomyzed and intestine was exteriorized. The entire colon was isolated from the caecum to the anus, placed unstretched on a ruler and then measured and weighed after rinsing the lumen with saline. The weight was normalized to the colon length by calculating the ratio.
For histological analysis of colon samples, about 2 cm of the middle portion of isolated colon was fixed in a 10% formalin. Each fixed fragment was embedded in paraffin. The slides were stained with haematoxylin and eosin and assessed according to the histological score.

[2] = Rifamycin concentration in colon homogenates and plasma, HPLC/MS-MS; format: in vivo; conditions: rats, single enema of formulation 7639
Method: Briefly, rats were anesthetized and treated by enema with formulation 7639 (2 mL/rat) into the rectum by using a catheter. All rats were sacrificed by CO2 inhalation at the predetermined time points. After a single enema administration of 7639 formulation, the concentration of Rifamycin in colon homogenates and plasma was determined by HPLC/MS-MS in samples collected at various time points.

Veillonella parvula = test: MIC, broth dilution; format: cell-based; conditions: DSM2007; Veillonella parvula DSM 2007; anaerobic
B. adolescentis = test: MIC, broth dilution; format: cell-based; conditions: Bifidobacterium adolescentis, DSM20083; B. adolescentis (DSM 20083); anaerobic
Escherichia coli = test: MIC, broth dilution; format: cell-based; conditions: aerobic
B. longum = test: MIC, broth dilution; format: cell-based; conditions: Bifidobacterium longum, anaerobic
Streptococcus pyogenes = test: MIC, broth dilution; format: cell-based; conditions: ATCC700460; Streptococcus pyogenes (ATCC 700460); aerobic
[3] = Rifamycin concentration in colon of DSS mice, HPLC MS/MS; format: in vivo; conditions: enema 67 mg/kg, all the tested time-points
Method: as §1
For PK analysis colon samples were cut into in pieces and washed 3 times with PBS to remove surface contaminants.

Prevotella intermedia = test: MIC, broth dilution; format: cell-based; conditions: DSM20706; Prevotella intermedia (DSM 20706); anaerobic
K. pneumoniae = test: MIC, broth dilution; format: cell-based; conditions: Klebsiella pneumoniae, aerobic

For `CO[C@H]1/C=C/O[C@@]2(C)Oc3c(C)c(O)c4c(O)c(cc(O)c4c3C2=O)NC(=O)/C(C)=C\C=C\[C@H](C)[C@H](O)[C@@H](C)[C@@H](O)[C@@H](C)[C@H](OC(C)=O)[C@@H]1C` [Rifamycin SV], the MIC ([1]; DSM107839, Faecalibacterium prausnitzii (DSM 107839)) was 0.06 µg/mL (≈ 0.086 µM), the MIC ([1]; Faecalibacterium prausnitzii, DSM17677, F. prausnitzii (DSM 17677)) was < 0.03 µg/mL and the MIC ([1]; Faecalibacterium prausnitzii, DSM107838, F. prausnitzii (DSM 107838)) was < 0.03 µg/mL. For the same compound, the MIC ([1]; Faecalibacterium prausnitzii, DSM107840, F. prausnitzii (DSM 107840)) was < 0.03 µg/mL, the MIC (Fusobacterium ulcerans) was 16 µg/mL (≈ 22.9 µM) and the MIC (C. perfringens) was < 0.03 µg/mL. The IC50 (mTOR pathway; Homo sapiens, Epithelial cell, serum stimulated primary colonic epithelial cells, 48 hr, read-out: IC50, % cells positive for anti-pmTOR and anti-pS6R relative to DMSO) was 9.9 µM, the “mTOR pathway potency, fold less potent than Rapamycin” value (mTOR pathway; ratio of IC50) was 20 fold and the “mTOR pathway potency, fold more potent than Rifaximin” value (mTOR pathway; ratio of IC50) was 4 fold. The MIC (Bacteroides fragilis; Bacteroides fragilis, DSM1396, B. fragilis (DSM 1396)) was 0.39 µg/mL (≈ 0.559 µM), the MIC (Bacteroides fragilis; Bacteroides fragilis, DSM9668, B. fragilis (DSM 9668)) was 100 µg/mL (≈ 143 µM) and the MIC (Bacteroides fragilis; Bacteroides fragilis, DSM9669, B. fragilis (DSM 9669)) was 100 µg/mL (≈ 143 µM). The MIC (Bacteroides fragilis; Bacteroides fragilis, DSM9670, B. fragilis (DSM 9670)) was 50 µg/mL (≈ 71.7 µM), the MIC (Bacteroides fragilis; Bacteroides fragilis, DSM9671, B. fragilis (DSM 9671)) was 50 µg/mL (≈ 71.7 µM) and the MIC (Bacteroides fragilis; DSM2151, Bacteroides fragilis (DSM 2151)) was 0.78 µg/mL (≈ 1.12 µM). The MIC (Rothia dentocariosa) was < 0.03 µg/mL, the MIC (Parvimonas micra) was < 0.3 µg/mL and the MIC (Bifidobacterium breve) was 0.5 µg/mL (≈ 0.717 µM). The histological score (DSS induced colitis; compared to 7663) was “lower improvement”, the “clinical score AUC” value (DSS induced colitis; compared to batch 7663) was “lower efficacy” and the cumulative stool score (DSS induced colitis; vs vehicle) was “significant improvement”. For the same compound, the concentration at 6 h ([2]; rat, colon homogenate, other: enema into the rectum, 2 mL/rat, 6 hrs after administration) was 123 ng/g, the “concentration in blood samples (LLOQ of the method)” value ([2]; 30 min., 1 h, 2 h, 4 h and 6 h) was < 1 ng/mL and the MIC (Veillonella parvula) was < 0.03 µg/mL. For the same compound, the MIC (B. adolescentis) was 1 µg/mL (≈ 1.43 µM), the MIC (Escherichia coli; ATCC35218, Escherichia coli (ATCC 35218)) was 50 µg/mL (≈ 71.7 µM) and the MIC (Escherichia coli; Escherichia coli, ATCC11775, E. coli (ATCC 11775)) was 16 µg/mL (≈ 22.9 µM). It also gave an MIC (Escherichia coli; Escherichia coli, ATCC25922, E. coli (ATCC 25922)) of 64 µg/mL (≈ 91.7 µM), an MIC (Escherichia coli; Escherichia coli, ATCC51446, E. coli (ATCC 51446)) of 200 µg/mL (≈ 287 µM) and an MIC (Escherichia coli; Escherichia coli, DSM22312, E. coli (DSM 22312)) of 32 µg/mL (≈ 45.9 µM). The MIC (Escherichia coli; Escherichia coli, DSM22313, E. coli (DSM 22313 )) was 64 µg/mL (≈ 91.7 µM), the MIC (Escherichia coli; Escherichia coli, DSM22664, E. coli (DSM 22664 )) was 32 µg/mL (≈ 45.9 µM) and the MIC (B. longum; DSM20088, B. longum (DSM 20088)) was 0.5 µg/mL (≈ 0.717 µM). For the same compound, the MIC (B. longum; DSM20090, B. longum (DSM 20090)) was 0.25 µg/mL (≈ 0.358 µM), the MIC (Streptococcus pyogenes) was 0.5 µg/mL (≈ 0.717 µM) and the “Rifamycin concentration in the colon homogenate” value [3] was “lower than that of the animals treated with formulation 7663”. For the same compound, the MIC (Prevotella intermedia) was < 0.3 µg/mL, the MIC (K. pneumoniae; DSM16609, K. pneumoniae (DSM 16609)) was > 64 µg/mL and the MIC (K. pneumoniae; DSM25721, K. pneumoniae (DSM 25721)) was 64 µg/mL (≈ 91.7 µM).
